The experiment deals with T1, PARP-1 (Homo sapiens, UniProt P09874).
T1 construct: gene PARP1
As to the kind of experiment: HT Universal Colorimetric PARP Assay Kit (Trevigen), in vitro PARP-1 activity. The experiment is classed as biochemical.

pIC50: −log10 of the molar value.

T1 sequence (P09874 2-1014): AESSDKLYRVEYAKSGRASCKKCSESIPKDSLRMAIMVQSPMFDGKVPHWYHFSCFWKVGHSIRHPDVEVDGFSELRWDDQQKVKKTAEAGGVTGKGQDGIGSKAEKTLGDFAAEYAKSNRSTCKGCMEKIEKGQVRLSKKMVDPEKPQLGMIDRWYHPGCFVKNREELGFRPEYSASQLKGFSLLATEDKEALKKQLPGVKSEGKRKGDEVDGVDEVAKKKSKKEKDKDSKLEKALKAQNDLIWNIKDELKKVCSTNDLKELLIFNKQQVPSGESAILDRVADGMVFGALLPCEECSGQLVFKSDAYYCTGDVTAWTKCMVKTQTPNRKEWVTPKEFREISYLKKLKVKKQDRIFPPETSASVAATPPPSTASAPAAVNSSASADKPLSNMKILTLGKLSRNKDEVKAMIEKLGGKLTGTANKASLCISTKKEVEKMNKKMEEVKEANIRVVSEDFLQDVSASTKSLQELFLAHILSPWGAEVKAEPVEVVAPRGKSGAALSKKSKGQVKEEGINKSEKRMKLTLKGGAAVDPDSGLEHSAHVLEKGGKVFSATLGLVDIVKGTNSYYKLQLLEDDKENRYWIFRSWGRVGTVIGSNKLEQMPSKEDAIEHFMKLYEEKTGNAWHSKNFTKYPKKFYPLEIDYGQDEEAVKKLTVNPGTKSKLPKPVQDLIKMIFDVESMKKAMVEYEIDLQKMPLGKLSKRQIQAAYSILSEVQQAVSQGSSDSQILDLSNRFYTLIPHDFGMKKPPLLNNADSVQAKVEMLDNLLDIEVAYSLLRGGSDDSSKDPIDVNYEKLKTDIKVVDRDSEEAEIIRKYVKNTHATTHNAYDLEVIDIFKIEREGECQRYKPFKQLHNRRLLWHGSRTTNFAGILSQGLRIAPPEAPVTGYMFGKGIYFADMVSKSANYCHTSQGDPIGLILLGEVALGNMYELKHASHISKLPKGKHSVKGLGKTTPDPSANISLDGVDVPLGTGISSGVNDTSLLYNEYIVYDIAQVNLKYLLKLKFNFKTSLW

One may read the pIC50 as −log10 of the IC50, conventionally taken in molar units. High values mean a small IC50, low ones a large IC50. Molecule `COc1ccc(-c2cc3cc(OC)cc(O)c3o2)cc1` [HDAB] showed a pIC50 of 3.81.
